The source of these data is article PMC11944513, “Investigation on Human Carbonic Anhydrase IX and XII Inhibitory Activity and A549 Antiproliferative Activity of a New Class of Coumarinamides” (Pharmaceuticals, 2025).

A word on the Ki: it is the equilibrium dissociation constant of an inhibitor or competing ligand from its target. A lower Ki goes with higher affinity. What is called IC50 is the concentration that gives 50% inhibition.

In data set [1] the target is h-CA I (Homo sapiens, UniProt P00915). Description: stopped-flow CO2 hydrase assay, h-CA I.
Sequence of h-CA I (P00915 whole entry): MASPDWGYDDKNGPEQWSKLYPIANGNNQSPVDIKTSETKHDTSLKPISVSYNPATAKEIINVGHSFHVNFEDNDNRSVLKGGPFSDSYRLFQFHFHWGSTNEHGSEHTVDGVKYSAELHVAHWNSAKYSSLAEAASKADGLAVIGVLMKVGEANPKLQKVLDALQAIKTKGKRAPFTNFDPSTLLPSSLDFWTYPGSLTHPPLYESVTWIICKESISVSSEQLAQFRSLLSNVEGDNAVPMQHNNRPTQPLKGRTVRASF
The target in data set [2] is h-CA II (Homo sapiens, UniProt P00918). Description: stopped-flow CO2 hydrase assay, h-CA II.
The test system of data set [3] is normal bronchial epithelial cells (BEAS-2B). The experiment in a line: cell viability (MTT assay), BEAS-2B. In kind it is cell-based, human. As to conditions: for IC50: Homo sapiens, BEAS-2B, 48 h exposure, nonlinear regression, predictive estimates. The procedure: Human bronchial epithelial (BEAS-2B; CRL-3588) and human lung carcinoma (A549; CCL-185) cell lines were obtained from ATCC®. BEAS and A549 cells were maintained in complete RPMI 1640 (Merck, Darmstadt, Germany) at 37 °C and 5% CO2. The medium was supplemented with 10% heat-inactivated fetal bovine serum (FBS), 1% penicillin/streptomycin and 1% sodium pyruvate.
(§1) Cells were seeded at different densities according to the different experimental techniques performed (MTT assay and cell cycle analysis) and left to adhere for 24 h. Next, the medium was removed, and cells were treated with tested compounds, dissolved in dimethyl sulfoxide (DMSO) to achieve concentrations ranging from 0 µM (untreated control = CTRL) to 150 µM. The final DMSO concentration was kept below 0.3%. Cell viability was evaluated at up to 72 h post-treatment. Images were acquired 48 h after treatments by means of a light phase-contrast microscope equipped with a camera (Leica). Images were acquired and analyzed by the Leica Application Suite LAS EZ version 3.4 (Leica, Wetzlar, Germany).
(§2) BEAS and A549 cells were seeded in 96-well culture-treated plates (Falcon®, Corning Incorporated, Brooklyn, NY, USA) at a density of 0.5 × 10^4 cells/well. Untreated cells were set as the experimental control, representing 100% of cell viability. Exposure times varied from 24 up to 72 h. At the established time points (24, 48 and 72 h), the exposure medium was replaced with fresh medium containing 0.5 mg/mL 3-(4,5-dimethylthiazol-2-yl)-2,5-diphenyltetrazolium bromide (MTT) (Merck, Darmstadt, Germany) and processed as previously reported. The optical density in each well was measured at a wavelength of 540 nm using a spectrophotometer (Thermo Fisher Scientific, Waltham, MA, USA). Each experiment was performed in triplicate per experimental conditions (n = 3).

Data set [4] addresses h-CA XII (Homo sapiens, UniProt O43570). Description: stopped-flow CO2 hydrase assay, h-CA XII.
Data set [5] addresses h-CA IX (Homo sapiens, UniProt Q16790). The experiment in a line: stopped-flow CO2 hydrase assay, h-CA IX. As to conditions: for selectivity on h-CA IX over h-CA XII (in words): comparison of Ki values.
The subject of data set [6] is bronchial adenocarcinoma cells (A549). Description: cell viability (MTT assay), A549. The class given is cell-based, human. To be noted: for IC50: Homo sapiens, A549, 48 h exposure, nonlinear regression, predictive estimates. The procedure: The medium was supplemented with 10% heat-inactivated fetal bovine serum (FBS), 1% penicillin/streptomycin and 1% sodium pyruvate.
Cells were seeded at different densities according to the different experimental techniques performed (MTT assay and cell cycle analysis) and left to adhere for 24 h. […] The final DMSO concentration was kept below 0.3%. Cell viability was evaluated at up to 72 h post-treatment. Images were acquired 48 h after treatments by means of a light phase-contrast microscope equipped with a camera (Leica). Images were acquired and analyzed by the Leica Application Suite LAS EZ version 3.4 (Leica, Wetzlar, Germany).
as §2

The test system of data set [7] is A549 cells. The experiment in a line: cytotoxicity assay (LDH test). The class given is cell-based, human. To be noted: 24 h; for LDH released, fold increase respective to untreated cells: A549, 150 µM. The method, then:
as §1
To assess cytotoxicity in A549 cells after their treatment with the tested compounds, the amount of lactate dehydrogenase released into the culture medium was quantified using the CytoTox 96 non-radioactive cytotoxicity assay (Promega, Madison, WI, USA) according to the manufacturer’s instructions. Cell supernatants were collected from the same cultures processed for the MTT assay after 24 h of treatment and the optical density values obtained were normalized to those measured from the MTT assay.
For orientation: LDH leaks from cells whose membrane has failed.

The subject of data set [8] is A549 cells. Description: cell cycle analysis (PI flow cytometry). As to conditions: A549, 0–150 µM, 48 h; S phase cells increased vs untreated control. The class given is cell-based, human. The procedure:
as §1
[…] At each time point, cells were detached using StemPro™ Accutase™, pelleted by centrifugation, and fixed overnight at 4 °C in 70% v/v cold ethanol. After fixation, cells were processed as described elsewhere. The PI fluorescence was detected by a flow cytometer equipped with a 488 nm laser (CytoFlex flow cytometer, Beckman Coulter, CA, USA) in the FL-3 channel. A minimum of 10,000 events/sample were acquired and analyzed with the CytExpert Software, version 2.3 (Beckman Coulter, CA, USA), and the percentages of cells in the G1, S, or G2 phase of the cell cycle were calculated using the ModFit LT™ Software, version 5.0 (Verity Software House, Topsham, ME, USA).

Sequence of h-CA XII (O43570 25-354): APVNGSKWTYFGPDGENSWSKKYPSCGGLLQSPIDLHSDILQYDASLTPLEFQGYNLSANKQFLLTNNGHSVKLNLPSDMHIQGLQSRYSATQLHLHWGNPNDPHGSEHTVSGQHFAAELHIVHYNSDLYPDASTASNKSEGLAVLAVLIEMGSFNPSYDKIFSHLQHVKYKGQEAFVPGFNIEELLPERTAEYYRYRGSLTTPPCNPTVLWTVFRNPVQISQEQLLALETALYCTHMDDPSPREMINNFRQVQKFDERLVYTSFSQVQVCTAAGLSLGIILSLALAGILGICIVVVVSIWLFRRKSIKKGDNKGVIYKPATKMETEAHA

For `O=C(NCc1ccc(Cl)cc1Cl)c1cc2ccc(O)cc2oc1=O` [Compound 22, N-(2,4-Dichlorobenzyl)-7-Hydroxy-2-Oxo-2H-Chromene-3-Carboxamide], the Ki in data set [1] was over 100 µM; in data set [2], over 100 µM; in data set [4], 84.1 µM; in data set [5] it was 22 µM. Further, the results for the IC50 in data set [3] and in data set [6] were 95.8 ± 1.07 µM and 83.3 ± 1.08 µM, respectively. Also, the “SI (selectivity index, IC50 BEAS/IC50 A549 ratio)” value in data set [6] (48 h) was 1.150.

On to `COc1ccc(CNC(=O)c2cc3ccc(O)cc3oc2=O)cc1` [Compound 9, 7-Hydroxy-N-(4-Methoxylbenzyl)-2-Oxo-2H-Chromene-3-Carboxamide], for which the Ki is over 100 µM in data set [1], over 100 µM in data set [2], 9.1 µM in data set [4] and 53.8 µM in data set [5]. The values for the IC50 in data set [3] and in data set [6] were 116 ± 1.22 µM and 68.2 ± 1.11 µM, respectively. The “LDH released, fold increase respective to untreated cells” value in data set [7] was about 3 fold.

Regarding `O=C(NCc1ccccc1)c1cc2ccc(O)cc2oc1=O` [Compound 4, N-Benzyl-7-Hydroxy-2-Oxo-2H-Chromene-3-Carboxamide], the Ki in data set [1] was over 100 µM; in data set [2] it was over 100 µM; in data set [4], 7.5 µM; in data set [5], 42.2 µM. The IC50 in data set [3] was 344.9 ± 3.14 µM.

In the case of `O=C(c1cc2ccc(O)cc2oc1=O)N1CCN(c2ccccc2)CC1` [Compound 32, 7-Hydroxy-3-(4-Phenylpiperazine-1-Carbonyl)-2H-Chromen-2-One], the Ki in data set [1] is over 100 µM; in data set [2] it was over 100 µM; in data set [4], 9.1 µM; in data set [5], 49.3 µM. The IC50 in data set [3] is 399.7 ± 1.68 µM; in data set [6] it was 156.9 ± 1.12 µM. In addition, the “selectivity on h-CA XII over h-CA IX” value in data set [4] (ratio of Ki values) is listed as about 5 fold. Moreover, the “SI (selectivity index, IC50 BEAS/IC50 A549 ratio)” value in data set [6] (48 h) was determined as 2.547.

Turning to `Cc1ccc(CNC(=O)c2cc3ccc(O)cc3oc2=O)cc1` [Compound 7, 7-Hydroxy-N-(4-Methylbenzyl)-2-Oxo-2H-Chromene-3-Carboxamide], the Ki in data set [1] was over 100 µM; in data set [2] it was over 100 µM; in data set [4], 8.8 µM; in data set [5] it was 33.7 µM. In addition, the results for the IC50 in data set [3] and in data set [6] were 157.8 ± 1.07 µM and 85.8 ± 1.13 µM, respectively. Besides, the “LDH released, fold increase respective to untreated cells” value in data set [7] is reported as about 2 fold.

Take `COc1cccc2c1C(=O)c1c(O)c3c(c(O)c1C2=O)C[C@@](O)(C(=O)CO)C[C@@H]3O[C@H]1C[C@H](N)[C@H](O)[C@H](C)O1` [doxorubicin, reference compound]: the “cell viability of BEAS cells” value in data set [3] (1 µM, 48 h) is on record as “dramatically decreased”. Besides, the “cell viability of A549 cells” value in data set [6] (1 µM, 48 h) was “dramatically decreased”.

`O=C(c1cc2ccc(O)cc2oc1=O)N1CCN(c2ccc(C(F)(F)F)cc2)CC1` [Compound 45, 3-(4-(4-Trifluoromethylphenyl)piperazine-1-Carbonyl)-7-Hydroxy-2H-Chromen-2-One]: the Ki in data set [1] was over 100 µM; in data set [2], over 100 µM; in data set [4], 8.4 µM; in data set [5] it was 22.6 µM. Further, the IC50 in data set [3] was 53.9 ± 1.07 µM; in data set [6], 25.7 ± 1.14 µM. Further, in data set [6] (48 h), the “SI (selectivity index, IC50 BEAS/IC50 A549 ratio)” value amounted to 2.096.

Regarding `Cc1cccc(CNC(=O)c2cc3ccc(O)cc3oc2=O)c1` [Compound 6, 7-Hydroxy-N-(3-Methylbenzyl)-2-Oxo-2H-Chromene-3-Carboxamide], the Ki in data set [1] was over 100 µM; in data set [2], over 100 µM; in data set [4] it was 9.3 µM; in data set [5], 82.5 µM. The IC50 in data set [3] was 117.9 ± 1.08 µM; in data set [6], 90 ± 1.07 µM. Moreover, the “SI (selectivity index, IC50 BEAS/IC50 A549 ratio)” value in data set [6] (48 h) is 1.309.

Regarding `COc1ccc(N2CCN(C(=O)c3cc4ccc(O)cc4oc3=O)CC2)cc1` [Compound 44, 7-Hydroxy-3-(4-(4-Methoxyphenyl)piperazine-1-Carbonyl)-2H-Chromen-2-One], the Ki is over 100 µM in data set [1], over 100 µM in data set [2], 22.5 µM in data set [4] and 32.8 µM in data set [5]. Moreover, the figures for the IC50 in data set [3] and in data set [6] were 203.5 ± 1.19 µM and 108 ± 1.28 µM, respectively. The “SI (selectivity index, IC50 BEAS/IC50 A549 ratio)” value in data set [6] (48 h) was 1.888.

With `Cc1ccccc1CNC(=O)c1cc2ccc(O)cc2oc1=O` [Compound 5, 7-Hydroxy-N-(2-Methylbenzyl)-2-Oxo-2H-Chromene-3-Carboxamide], the Ki in data set [1] is over 100 µM; in data set [2], over 100 µM; in data set [4], 35.5 µM; in data set [5], 25.4 µM. The IC50 in data set [3] was 181.2 ± 1.2 µM; in data set [6], 248.2 ± 1.57 µM. The “SI (selectivity index, IC50 BEAS/IC50 A549 ratio)” value in data set [6] (48 h) amounted to 0.730.

Regarding `Cc1ccc(N2CCN(C(=O)c3cc4ccc(O)cc4oc3=O)CC2)cc1C` [Compound 38, 3-(4-(3,4-Dimethylphenyl)piperazine-1-Carbonyl)-7-Hydroxy-2H-Chromen-2-One], the Ki in data set [1] is over 100 µM; in data set [2], over 100 µM; in data set [4], 9.2 µM; in data set [5] it was 70.3 µM. Besides, the IC50 is 187.4 ± 1.27 µM in data set [3] and 50 ± 1.28 µM in data set [6]. In addition, the “arrest of cell cycle progression” value in data set [8] is on record as “able to arrest cells at the G1/S checkpoint”. Also, the “cytotoxicity occurrence (LDH release)” value in data set [7] (A549, 0–150 µM) is reported as “None of the compounds administered displayed cytotoxicity”. In addition, the “SI (selectivity index, IC50 BEAS/IC50 A549 ratio)” value in data set [6] (48 h) is 3.747.

Regarding `O=C(NCCc1cccc(Cl)c1)c1cc2ccc(O)cc2oc1=O` [Compound 30, N-(3-Chlorophenethyl)-7-Hydroxy-2-Oxo-2H-Chromene-3-Carboxamide], the Ki in data set [1] is over 100 µM; in data set [2] it was over 100 µM; in data set [4], 55.8 µM; in data set [5], 7.5 µM. Besides, the IC50 was 87.4 ± 1.06 µM in data set [3] and 59.7 ± 1.07 µM in data set [6]. Further, the “selectivity on h-CA IX over h-CA XII (in words)” value (“selectivity on h-CA IX” below) in data set [5] is “good selectivity against h-CA IX over h-CA XII”. Moreover, the “SI (selectivity index, IC50 BEAS/IC50 A549 ratio)” value in data set [6] (48 h) was found to be 1.465.

As to `O=C(NCc1ccccc1Cl)c1cc2ccc(O)cc2oc1=O` [Compound 19, N-(2-Chlorobenzyl)-7-Hydroxy-2-Oxo-2H-Chromene-3-Carboxamide], the Ki was over 100 µM in data set [1], over 100 µM in data set [2], 64.9 µM in data set [4] and 19.3 µM in data set [5]. Also, the IC50 was 40.7 ± 1.1 µM in data set [3] and 32 ± 1.22 µM in data set [6]. For the same molecule, the “selectivity on h-CA IX” value in data set [5] is “about three times more active on h-CA IX”. Besides, in data set [6] (48 h), the “SI (selectivity index, IC50 BEAS/IC50 A549 ratio)” value is 1.271.

Turning to `O=C(NCCc1ccccc1Cl)c1cc2ccc(O)cc2oc1=O` [Compound 29, N-(2-Chlorophenethyl)-7-Hydroxy-2-Oxo-2H-Chromene-3-Carboxamide], the Ki in data set [1] is over 100 µM; in data set [2], over 100 µM; in data set [4], 43.1 µM; in data set [5], 5.5 µM. The IC50 is 77.5 ± 1.08 µM in data set [3] and 55.9 ± 1.12 µM in data set [6]. In addition, the “selectivity on h-CA IX” value in data set [5] is listed as “good selectivity against h-CA IX over h-CA XII”. In data set [6] (48 h), the “SI (selectivity index, IC50 BEAS/IC50 A549 ratio)” value is listed as 1.386.
